The nature of data set [1]: A2E fluorescence assay for molecules able to encapsulate A2E (AUC ratio). Format: binding. The note with it: fluorescence spectra changes as a function of added β-CD concentration. The method, then:
In the assay method, at least two solutions containing a lipofuscin bisretinoid lipid are first provided, and the at least two solutions should be substantially the same in all respects, such as in the type of lipofuscin bisretinoid lipid, the concentration of lipofuscin bisretinoid lipid, and the solvent composition. A candidate compound is then added to at least one of the solutions. Fluorescence spectra of the two solutions (i.e., a first solution not containing the candidate compound and a second solution containing the candidate compound) is then measured at an excitation wavelength (e.g., 434 nm or other suitable excitation wavelength) that causes fluorescence of the lipofuscin bisretinoid lipid in the range of 530 nm and 700 nm, or any suitable sub-range therein. An area under the curve (AUC) is then determined for corresponding spectral curves of the first and second solutions within the range of 530 nm and 700 nm or a sub-range therein. […] A ratio of the AUC of the second solution (containing the candidate compound) over the AUC of the first solution (not containing the candidate compound) is then calculated. […]
The fluorescence spectra were immediately determined (although it was stable for several days) between 530 and 700 nm using a 434 nm excitation wavelength. […] The area under the resulting spectral fluorescence curve was determined with statistical software (Prism4, GraphPad). […]

Data set [2] is described as follows: Fluorescence comparison of cyclodextrin binding to DHE. The note with it: fluorescence spectra changes as a function of added β-CD concentration. From the text:
The binding of A2E and DHE (fluorescent cholesterol analog to cyclodextrins) has been herein investigated by using the assay method described above. […] The determination of affinity constants and stoichiometry for new inclusion complexes can be complex, particularly when the molecular ratio host:guest is bigger than 1. For cholesterol, however, the affinity constants, stoichiometry, molecular structure, and applications of many of its inclusion complexes with cyclic oligosaccharides have been well established. In this context, the side-by-side comparation of A2E and cholesterol complex formation with the same cyclic oligosaccharide serves as an immediate reference to evaluate the quality of the inclusion complex with A2E, as well as help in the determination of its affinity constant, stoichiometry, and structure.

The nature of the next data set: A2E oxidation assay. The conditions noted are these: A2E 5 μM in water, 48 hours, RT in the dark, cyclodextrin 10-100 mM. The method, then: Solutions containing increasing amounts of Poly Beta-CD (0 mM to 100 mM) were prepared in water, and A2E was added to a final concentration of 5 μM. The solutions were incubated at RT in the dark. 48 hrs later, the UV-visible absorption spectra between 300 and 700 nm was analyzed to determine the oxidative status of A2E. […] These bands can be assigned to the shorter (S) and longer (L) arms of A2E, respectively. Oxidation of a carbon-carbon double bond is accompanied by a hypsochromic shift. A hypsochromic shift in band S corresponds with oxidation on the short arm; a blue-shift in band L reflects oxidation on the long arm; hypsochromic shifts in both peaks indicates oxidation on both side arms (Jang Y. P. et al., J. Biol. Chem., 2005, 280(48):39732-9). The results shown in FIG. 12A indicate that under this aqueous environment A2E oxidizes.

The next data set in a line: A2E aggregation assay. The note with it: A2E 25 μM aqueous solution. From the text: A2E aggregates are believed to have a role in RPE cell death. This study investigated whether cyclic oligosaccharides dissolve A2E aggregates that form in aqueous phase. The following can be deduced from FIG. 13:
[…] After three days, the liquid in each chamber was harvested and analyzed with a spectrofluorometer to detect the presence of A2E. Only inserts with 3 μm pores allowed A2E to diffuse through.
The presence of A2E on each side was established by fluorescence scanning between 530-700 nm using 434 nm as the excitation wavelength.

Another data set concerns eyecups from DKO mice. The experiment in a line: In vitro assay on eyecups of DKO mice. The note with it: 2 mM cyclodextrin, 36 hours of culture. The method, then:
FIGS. 17A, 17B. […] The resulting eyecups were in vitro treated with cyclodextrins for 36 hrs before observing them under the microscope (FIG. 17B).
Eyecups comprise the dark pigmented RPE, choriocapillaries, as well as the grayish sclera. Eyecups were incubated in complete media containing, or not, 2 mM cyclodextrins. After 36 hours of culture, eyecups were flat mounted on glasses and fluorescence was analyzed in the microscope.

Another data set relates to DKO mice. The experiment in a line: Fluorescence microscopy of cryosected retinas of DKO mice after subtenon injection. Format: in vivo. The conditions noted are these: single subtenon injection 4000 mg/kg, after 48 hours; for retinal detachment in cryosected retinas: 4000 mg/kg. The method, then:
FIG. 18. Micrographs showing the fluorescence of cryosected retinas of 8-months old WT and DKO mice. The micrographs obtained from (A) a normal mouse, (B) DKO animals not treated with methyl beta-CD, and (C) DKO animals treated with methyl beta-CD. The DKO animals have strong autofluorescence in the RPE layer compared with WT as well as retinal detachment (size shown by arrow). Single subtenon administration of methyl Beta CD (4000 mg/kg) reduced both RPE autofluorescence and retinal detachment.
The retinas of wild type and DKO animals were analyzed by fluorescence microscopy with the following procedure. Briefly wild type and DKO animals were mock-treated or treated with a single subtenon injection with either vehicle or with methyl beta-cyclodextrin (4000 mg/kg). After 48 hours the eyes were enucleated, fixed, and cryosected. For viewing, 10-micron thick sections were blocked and stained with the red-fluorescently labeled lectin PNA to identify cones in the photoreceptor outer segments (PROS), and blue DAPI nuclear stain to identify the nuclei. In the gray scale micrograph of FIG. 18 (Panel A), the red and blue stains are not distinguishable, so the red fluorescence is labeled PROS and the lighter autofluorescent RPE is also labeled.

For data set [3] the following is noted: cited from earlier work.

These results are taken from patent publication US10849922B2, “Treatments for retinal disorders” (Cornell University, priority 2011, dated 2020).

Take `OC[C@H]1O[C@@H]2O[C@H]3[C@H](O)[C@@H](O)[C@@H](O[C@H]4[C@H](O)[C@@H](O)[C@@H](O[C@H]5[C@H](O)[C@@H](O)[C@@H](O[C@H]6[C@H](O)[C@@H](O)[C@@H](O[C@H]7[C@H](O)[C@@H](O)[C@@H](O[C@H]8[C@H](O)[C@@H](O)[C@@H](O[C@H]1[C@H](O)[C@H]2O)O[C@@H]8CO)O[C@@H]7CO)O[C@@H]6CO)O[C@@H]5CO)O[C@@H]4CO)O[C@@H]3CO` [Compound 4, β-cyclodextrin]: the “formation of inclusion complex with A2E” value in data set [1] was “A2E-β-CD inclusion complexes”. Moreover, in data set [2], the “formation of inclusion complex with DHE” value was “formation of DHE-β-CD”. Besides, in “A2E oxidation assay”, the “oxidation of A2E (UV-visible absorption spectra)” value is “oxidation of A2E was not observed”. In addition, the “dissolution of A2E aggregates in aqueous phase (diffusion through 0.2 μm pores)” value in “A2E aggregation assay” is listed as “dissolved the A2E aggregates”.
Take Methyl-β-cyclodextrin [Compound 5]: the “fluorescence of eyecups (bisretinoids in RPE)” value with eyecups from DKO mice is on record as “lack of fluorescence”. Further, the “RPE autofluorescence (bisretinoids) in cryosected retinas” value in the data set on DKO mice was “reduced”. The “retinal detachment in cryosected retinas” value in the data set with DKO mice (listed as methyl Beta CD) is recorded as “reduced”; in the data set on DKO mice (listed as methyl beta-cyclodextrin) it was “reduced detachment”.
Turning to Triacetyl-β-cyclodextrin [Compound 12], the “solubility in water (in words)” value in data set [3] is on record as “insoluble”.
